Values of other authors, collected in patent US20230346789A1, “METHODS OF TREATING ENHANCING BRAIN TUMORS USING COMBINATION THERAPY” (MSD International GmbH, priority 2022, published 2023).
Where two headings read alike, the source gives them in different places.

How the values were obtained:
[1] = tested on: Recurrent or Progressive Glioma; settings: monotherapy

Row | Compound | preclinical safety profile | clinical efficacy ([1]; patients with non-enhancing gliomas) | clinical efficacy ([1]; patients with recurrent enhancing gliomas)
1 | pembrolizumab: humanized immunoglobulin G4 (IgG4) monoclonal antibody blocking the programmed death receptor-1 (PD1) | acceptable |  | 
2 | C[C@@H](Nc1nc(N[C@H](C)C(F)(F)F)nc(-c2cccc(Cl)n2)n1)C(F)(F)F [vorasidenib, 6-(6-chloropyridin-2-yl)-N^2,N^4-bis((R)-1,1,1-trifluoropropan-2-yl)-1,3,5-triazine-2,4-diamine] |  | clinical activity and prolonged disease control | only limited efficacy
